Article PMC9120017, “Inhibition mechanism of the chloride channel TMEM16A by the pore blocker 1PBC” (Nature Communications, 2022)
Read-outs that look alike come from different tables or passages of the source.

Molecular target: T1, mouse TMEM16A mutant I636A (Mus musculus, UniProt Q8BHY3, I636A)
T1 construct: expressed in transfected cells; host or cells: HEK293T
T1 sequence (Q8BHY3 1-960 I636A): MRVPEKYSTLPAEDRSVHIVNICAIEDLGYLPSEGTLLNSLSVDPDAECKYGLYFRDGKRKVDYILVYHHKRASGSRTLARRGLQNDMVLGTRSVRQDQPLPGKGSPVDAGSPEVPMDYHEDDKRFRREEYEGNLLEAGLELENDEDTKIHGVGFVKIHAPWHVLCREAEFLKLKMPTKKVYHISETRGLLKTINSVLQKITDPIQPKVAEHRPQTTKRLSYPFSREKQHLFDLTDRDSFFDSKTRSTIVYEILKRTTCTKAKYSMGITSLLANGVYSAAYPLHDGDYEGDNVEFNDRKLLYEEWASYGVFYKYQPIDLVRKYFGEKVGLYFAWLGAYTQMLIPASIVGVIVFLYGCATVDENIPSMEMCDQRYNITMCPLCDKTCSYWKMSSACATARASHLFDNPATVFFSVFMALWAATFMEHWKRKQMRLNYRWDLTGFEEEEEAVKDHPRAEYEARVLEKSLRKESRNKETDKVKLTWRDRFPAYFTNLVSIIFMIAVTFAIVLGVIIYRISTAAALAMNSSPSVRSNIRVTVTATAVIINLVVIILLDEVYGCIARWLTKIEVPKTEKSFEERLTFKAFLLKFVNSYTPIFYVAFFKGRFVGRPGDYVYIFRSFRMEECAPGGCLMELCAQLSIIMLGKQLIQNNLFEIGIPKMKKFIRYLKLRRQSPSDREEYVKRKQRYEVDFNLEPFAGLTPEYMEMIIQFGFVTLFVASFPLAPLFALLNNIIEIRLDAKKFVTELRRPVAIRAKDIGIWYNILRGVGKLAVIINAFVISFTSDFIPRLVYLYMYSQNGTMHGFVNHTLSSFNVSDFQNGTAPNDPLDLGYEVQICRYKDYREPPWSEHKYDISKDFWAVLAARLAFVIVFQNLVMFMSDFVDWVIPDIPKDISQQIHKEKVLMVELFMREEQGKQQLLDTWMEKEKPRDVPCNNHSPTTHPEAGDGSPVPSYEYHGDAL
Test: Inside-out patch recording of 1PBC block, mutant I636A
Format: cell-based
Conditions: for remaining activity at 3 µM: 1PBC conc 3; for remaining activity at 3 µM / remaining activity at 10 µM / remaining activity at 30 µM / remaining activity at 100 µM: read-out: relative current in 1PBC (avr); for remaining activity at 10 µM: 1PBC conc 10; for remaining activity at 30 µM: 1PBC conc 30; for remaining activity at 100 µM: 1PBC conc 100
Procedure: HEK293T cells (ATCC CRL-1573) were maintained in Dulbecco’s modified Eagle’s medium (DMEM; Sigma-Aldrich) supplemented with 10 U ml^−1 penicillin, 0.1 mg ml^−1 streptomycin (Sigma-Aldrich), 2 mM L-glutamine (Sigma-Aldrich), and 10% FBS (Sigma-Aldrich) in a humidified atmosphere containing 5% CO2 at 37 °C. HEK293S GnTI^− cells (ATCC CRL-3022) were maintained in HyClone HyCell TransFx-H medium (GE Healthcare) supplemented with 10 U ml^−1 penicillin, 0.1 mg ml^−1 streptomycin, 4 mM L-glutamine, 0.15% poloxamer 188 (Sigma-Aldrich), and 1% FBS in an atmosphere containing 5% CO2 at 185 rpm at 37 °C. The ac splice variant of mouse TMEM16A (UniProt ID: Q8BHY3), mouse TMEM16B (UniProt ID: Q8CFW1), or mouse TMEM16F (UniProt ID: Q6P9J9) bearing a 3C cleavage site, a Venus YFP, a Myc tag, and a Streptavidin-binding peptide (SBP) downstream of the open reading frame in a modified pcDNA3.1 vector (Invitrogen) were used as described previously[21],[31]. Mutations were introduced using a modified QuikChange method[58] and were verified by sequencing.
HEK293T cells were transfected with 3–4 μg DNA per 6 cm Petri dish using the calcium phosphate co-precipitation method and were used within 24–96 h after transfection. Recordings were performed on inside-out patches excised from HEK293T cells expressing the construct of interest. Patch pipettes were pulled from borosilicate glass capillaries (O.D. 1.5 mm, I.D. 0.86 mm, Sutter Instrument) and were fire-polished with a microforge (Narishige) before use. Pipette resistance was typically 3–8 MΩ when filled with the recording solutions detailed below. Seal resistance was typically 4 GΩ or higher. Voltage-clamp recordings were made using Axopatch 200B, Digidata 1550, and Clampex 10.7 (Molecular Devices). Analog signals were filtered with the in-built 4-pole Bessel filter at 10 kHz and were digitized at 20 kHz. Solution exchange was achieved using a gravity-fed system through a theta glass pipette mounted on an ultra-fast piezo-driven stepper (Siskiyou). […] All recordings were performed at 20 °C.
A symmetrical ionic condition was used throughout. Stock solution with Ca^2+-EGTA contained 150 mM NaCl, 5.99 mM Ca(OH)2, 5 mM EGTA, and 10 mM HEPES at pH 7.40. Stock solution with EGTA contained 150 mM NaCl, 5 mM EGTA, and 10 mM HEPES at pH 7.40. Free Ca^2+ concentrations were adjusted by mixing the stock solutions at the required ratios calculated using the WEBMAXC program (http://web.stanford.edu/~cpatton/webmaxcS.htm). Patch pipettes were filled with the stock solution with Ca^2+-EGTA, which has a free Ca^2+ concentration of 1 mM. 1PBC (ChemBridge) stock was reconstituted in anhydrous DMSO (Sigma-Aldrich) at 100 mM and stored at −20 °C. Working solutions with 1PBC were prepared by serial dilution. Unless otherwise stated, experiments were performed at a saturating Ca^2+ concentration as shown in Supplementary Table 1 and the primary data were corrected for current rundown as described previously[21],[25].
Concentration-response relations, obtained from the ratio of the I-V plots before and after the application of the blocker, were fitted to the Hill equation,1 I/Imax=1/1+IC50/[blocker]^h where I/Imax is the normalized current responses, IC50 defines the concentration at which inhibition is at its half-maximum, and h is the Hill coefficient.

IC50 (0 mV, 15 µM Ca2+): 6.73 µM
remaining activity at 3 µM (0 mV): 68.4%
remaining activity at 10 µM (0 mV): 39.2%
remaining activity at 30 µM (0 mV): 19.6%
remaining activity at 100 µM (0 mV): 9.71%
IC50 (20 mV, 15 µM Ca2+): 5.47 µM
remaining activity at 3 µM (20 mV): 63.6%
remaining activity at 10 µM (20 mV): 34.4%
remaining activity at 30 µM (20 mV): 17.1%
remaining activity at 100 µM (20 mV): 9.23%
IC50 (40 mV, 15 µM Ca2+): 4.65 µM
remaining activity at 3 µM (40 mV): 60.6%
remaining activity at 10 µM (40 mV): 30.8%
remaining activity at 30 µM (40 mV): 15.1%
remaining activity at 100 µM (40 mV): 5.83%
IC50 (60 mV, 15 µM Ca2+): 4.03 µM
remaining activity at 3 µM (60 mV): 56.6%
remaining activity at 10 µM (60 mV): 27.9%
remaining activity at 30 µM (60 mV): 14.3%
remaining activity at 100 µM (60 mV): 6.18%
log-fold IC50 (change of mutant vs WT) (80 mV): 0.2863
IC50 (80 mV, 15 µM Ca2+): 3.83 µM
remaining activity at 3 µM (80 mV): 55.6%
remaining activity at 10 µM (80 mV): 26.8%
remaining activity at 30 µM (80 mV): 13.6%
remaining activity at 100 µM (80 mV): 5.37%
IC50 (100 mV, 15 µM Ca2+): 3.89 µM
remaining activity at 3 µM (100 mV): 55.3%
remaining activity at 10 µM (100 mV): 27%
remaining activity at 30 µM (100 mV): 15.6%
remaining activity at 100 µM (100 mV): 5.12%
IC50 (120 mV, 15 µM Ca2+): 4.05 µM
remaining activity at 3 µM (120 mV): 56.6%
remaining activity at 10 µM (120 mV): 27.6%
remaining activity at 30 µM (120 mV): 16%
remaining activity at 100 µM (120 mV): 4.9%
IC50 (140 mV, 15 µM Ca2+): 4.5 µM
remaining activity at 3 µM (140 mV): 58.9%
remaining activity at 10 µM (140 mV): 29.8%
remaining activity at 30 µM (140 mV): 17.2%
remaining activity at 100 µM (140 mV): 5.22%
IC50 (-20 mV, 15 µM Ca2+): 8.22 µM
remaining activity at 3 µM (-20 mV): 73.2%
remaining activity at 10 µM (-20 mV): 44.1%
remaining activity at 30 µM (-20 mV): 22.1%
remaining activity at 100 µM (-20 mV): 10.2%
IC50 (-40 mV, 15 µM Ca2+): 10.2 µM
remaining activity at 3 µM (-40 mV): 77.7%
remaining activity at 10 µM (-40 mV): 49.5%
remaining activity at 30 µM (-40 mV): 25.2%
remaining activity at 100 µM (-40 mV): 11%
IC50 (-60 mV, 15 µM Ca2+): 12.5 µM
remaining activity at 3 µM (-60 mV): 81.7%
remaining activity at 10 µM (-60 mV): 54.6%
remaining activity at 30 µM (-60 mV): 29.3%
remaining activity at 100 µM (-60 mV): 11.8%
IC50 (-80 mV, 15 µM Ca2+): 16 µM
remaining activity at 3 µM (-80 mV): 85.2%
remaining activity at 10 µM (-80 mV): 60.7%
remaining activity at 30 µM (-80 mV): 34%
remaining activity at 100 µM (-80 mV): 16.3%
IC50 (-100 mV, 15 µM Ca2+): 19.2 µM
remaining activity at 3 µM (-100 mV): 87.8%
remaining activity at 10 µM (-100 mV): 65.1%
remaining activity at 30 µM (-100 mV): 37.6%
remaining activity at 100 µM (-100 mV): 18.6%
IC50 (-120 mV, 15 µM Ca2+): 23.6 µM
remaining activity at 3 µM (-120 mV): 90.9%
remaining activity at 10 µM (-120 mV): 69.5%
remaining activity at 30 µM (-120 mV): 41.8%
remaining activity at 100 µM (-120 mV): 22.1%
IC50 (-140 mV, 15 µM Ca2+): 27.8 µM
remaining activity at 3 µM (-140 mV): 92.3%
remaining activity at 10 µM (-140 mV): 72.1%
remaining activity at 30 µM (-140 mV): 45.6%
remaining activity at 100 µM (-140 mV): 25.9%
IC50 (I636A, V 0 mV): 6.73 µM
IC50 (I636A, V 20 mV): 5.47 µM
IC50 (I636A, V 40 mV): 4.65 µM
IC50 (I636A, V 60 mV): 4.03 µM
IC50 (I636A, V 80 mV): 3.83 µM
IC50 (I636A, V 100 mV): 3.89 µM
IC50 (I636A, V 120 mV): 4.05 µM
IC50 (I636A, V 140 mV): 4.5 µM
IC50 (I636A, V -20 mV): 8.22 µM
IC50 (I636A, V -40 mV): 10.2 µM
IC50 (I636A, V -60 mV): 12.5 µM
IC50 (I636A, V -80 mV): 16 µM
IC50 (I636A, V -100 mV): 19.2 µM
IC50 (I636A, V -120 mV): 23.6 µM
IC50 (I636A, V -140 mV): 27.8 µM
SMILES: N#Cc1c(C(F)(F)F)cc(O)n2c1nc1ccccc12 [1PBC]
